{"source": "paper PMC2633282", "about": "“A P2X receptor from the tardigrade species Hypsibius dujardini with fast kinetics and sensitivity to zinc and copper” (BMC Evolutionary Biology, 2009)", "assay_in_all_cases": "two-electrode voltage clamp, Xenopus oocytes", "assay_type_in_all_cases": "cell-based", "key": {"[1]": {"target": "T1, HdP2X (Hypsibius dujardini, UniProt B8RGS2)", "T1 construct": "full-length, 480 residues, cDNA clone in pSPORT1; cRNA in Xenopus oocytes; P2X receptors are trimers", "T1 sequence (B8RGS2 1-480)": "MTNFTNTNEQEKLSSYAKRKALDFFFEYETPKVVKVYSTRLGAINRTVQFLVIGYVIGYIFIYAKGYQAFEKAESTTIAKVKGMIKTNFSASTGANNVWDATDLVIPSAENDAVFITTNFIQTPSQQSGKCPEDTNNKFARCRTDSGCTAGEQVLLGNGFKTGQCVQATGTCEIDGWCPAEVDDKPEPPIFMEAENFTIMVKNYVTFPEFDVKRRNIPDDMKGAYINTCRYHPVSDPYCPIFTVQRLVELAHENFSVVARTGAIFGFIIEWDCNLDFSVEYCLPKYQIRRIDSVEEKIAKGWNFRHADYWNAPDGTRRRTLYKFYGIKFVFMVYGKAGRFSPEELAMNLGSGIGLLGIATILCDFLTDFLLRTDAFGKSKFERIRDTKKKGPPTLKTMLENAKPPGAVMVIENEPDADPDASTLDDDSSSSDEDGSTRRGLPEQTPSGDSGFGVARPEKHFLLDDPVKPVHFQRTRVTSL", "conditions": "agonist; -60 mV; ND96 with Ba2+ for Ca2+, pH 7.5"}, "[2]": {"target": "T1, HdP2X"}, "[3]": {"target": "T1, HdP2X", "remark": "listed apart in the source"}}, "note": "pEC50, pIC50: −log10 of the molar value.", "data": [{"compound": "Nc1ncnc2c1ncn2[C@@H]1O[C@H](COP(=O)(O)CP(=O)(O)OP(=O)(O)O)[C@@H](O)[C@H]1O", "note": "[αβ-methylene ATP, α,β-methylene-adenosine 5'-triphosphate]", "values": [{"measurement": "% of 100 μM ATP response at 100 μM", "setting": "[1]", "value": "< 50", "unit": "%"}]}, {"compound": "Nc1ncnc2c1ncn2[C@@H]1O[C@H](COP(=O)(O)OP(=O)(O)OP(=O)(O)O)[C@@H](O)[C@H]1O", "note": "[ATP]", "values": [{"measurement": "pEC50", "setting": "[2]", "value": 4.35}]}, {"compound": "Nc1ncnc2c1ncn2[C@@H]1O[C@H](COP(=O)(O)OP(=O)(O)OP(=O)(O)O)[C@@H](OC(=O)c2ccc(C(=O)c3ccccc3)cc2)[C@H]1O", "note": "[Bz-ATP, 2',3'-O-4-Benzoylbenzoyl ATP]", "values": [{"measurement": "pEC50", "setting": "[2]", "value": 4.91}]}, {"compound": "Cc1nc(N=Nc2ccc(S(=O)(=O)O)cc2S(=O)(=O)O)c(COP(=O)(O)O)c(C=O)c1O", "note": "[PPADS, pyridoxal-phosphate-6-azophenyl-2',4'-disulfonic acid]", "values": [{"measurement": "pIC50", "setting": "[3]", "value": 4.82}]}, {"compound": "Cc1ccc(C(=O)Nc2ccc(S(=O)(=O)O)c3cc(S(=O)(=O)O)cc(S(=O)(=O)O)c23)cc1NC(=O)c1cccc(NC(=O)Nc2cccc(C(=O)Nc3cc(C(=O)Nc4ccc(S(=O)(=O)O)c5cc(S(=O)(=O)O)cc(S(=O)(=O)O)c45)ccc3C)c2)c1", "note": "[suramin]", "values": [{"measurement": "pIC50", "setting": "[3]", "value": 4.65}]}]}
